The values that follow come from patent publication US11787785B2 (NOVARTIS AG, priority 2021, dated 2023).

SMILES strings stand for the structures. Like-named read-outs stand apart in the source and are kept apart here. Where only a bound is given, the exact number is not on record here.

The assay deals with T1, WIZ protein (HiBit-WIZ fusion protein) (Homo sapiens, UniProt O95785+Q96SW2).
T1 construct: expressed in transfected cells
The assay can be described thus: Quantification of WIZ protein levels in HiBit tag fusion protein assay (WIZ HiBit assay in 293T cells). The class given is cell-based. Set-up: remaining activity / Dmax: dose or concentration left out as unconfirmed. A digest of the protocol: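 HiBit-tagged WIZ (N-terminal tag, HSVTK promoter) stably expressed single-copy in 293T cells; 10-point 1:5 compound series, top 25 μM, ~18 h at 37 °C. Lytic HiBit/LgBit luminescence read; Amax = curve-fitted % WIZ-HiBit remaining at 25 μM, DMSO normalized to 100%.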
A general note: HiBiT is a short tag that completes a luciferase, so light tracks the accessible tagged protein.

Where [1] appears, read: HEK-293T, 100 − Amax, at 25 uM; 293T cells; read-out: % degradation of WIZ (100 − Amax).
The mark [2] stands for this setting: HEK-293T, DMSO-normalized, curve-fitted percentage of WIZ-HiBit remaining at 25 uM; 293T cells; read-out: WIZ Amax.
Setting [3] is: WIZ HiBit assay in 293T cells; 10-point, 5-fold dose response, highest concentration 25 μM, about 18 hours; read-out: WIZ AC50.
Setting [4] is: HEK-293T, read-out: % degradation of WIZ (100 − Amax).

T1 sequence (O95785 whole entry, the tested form may be a part): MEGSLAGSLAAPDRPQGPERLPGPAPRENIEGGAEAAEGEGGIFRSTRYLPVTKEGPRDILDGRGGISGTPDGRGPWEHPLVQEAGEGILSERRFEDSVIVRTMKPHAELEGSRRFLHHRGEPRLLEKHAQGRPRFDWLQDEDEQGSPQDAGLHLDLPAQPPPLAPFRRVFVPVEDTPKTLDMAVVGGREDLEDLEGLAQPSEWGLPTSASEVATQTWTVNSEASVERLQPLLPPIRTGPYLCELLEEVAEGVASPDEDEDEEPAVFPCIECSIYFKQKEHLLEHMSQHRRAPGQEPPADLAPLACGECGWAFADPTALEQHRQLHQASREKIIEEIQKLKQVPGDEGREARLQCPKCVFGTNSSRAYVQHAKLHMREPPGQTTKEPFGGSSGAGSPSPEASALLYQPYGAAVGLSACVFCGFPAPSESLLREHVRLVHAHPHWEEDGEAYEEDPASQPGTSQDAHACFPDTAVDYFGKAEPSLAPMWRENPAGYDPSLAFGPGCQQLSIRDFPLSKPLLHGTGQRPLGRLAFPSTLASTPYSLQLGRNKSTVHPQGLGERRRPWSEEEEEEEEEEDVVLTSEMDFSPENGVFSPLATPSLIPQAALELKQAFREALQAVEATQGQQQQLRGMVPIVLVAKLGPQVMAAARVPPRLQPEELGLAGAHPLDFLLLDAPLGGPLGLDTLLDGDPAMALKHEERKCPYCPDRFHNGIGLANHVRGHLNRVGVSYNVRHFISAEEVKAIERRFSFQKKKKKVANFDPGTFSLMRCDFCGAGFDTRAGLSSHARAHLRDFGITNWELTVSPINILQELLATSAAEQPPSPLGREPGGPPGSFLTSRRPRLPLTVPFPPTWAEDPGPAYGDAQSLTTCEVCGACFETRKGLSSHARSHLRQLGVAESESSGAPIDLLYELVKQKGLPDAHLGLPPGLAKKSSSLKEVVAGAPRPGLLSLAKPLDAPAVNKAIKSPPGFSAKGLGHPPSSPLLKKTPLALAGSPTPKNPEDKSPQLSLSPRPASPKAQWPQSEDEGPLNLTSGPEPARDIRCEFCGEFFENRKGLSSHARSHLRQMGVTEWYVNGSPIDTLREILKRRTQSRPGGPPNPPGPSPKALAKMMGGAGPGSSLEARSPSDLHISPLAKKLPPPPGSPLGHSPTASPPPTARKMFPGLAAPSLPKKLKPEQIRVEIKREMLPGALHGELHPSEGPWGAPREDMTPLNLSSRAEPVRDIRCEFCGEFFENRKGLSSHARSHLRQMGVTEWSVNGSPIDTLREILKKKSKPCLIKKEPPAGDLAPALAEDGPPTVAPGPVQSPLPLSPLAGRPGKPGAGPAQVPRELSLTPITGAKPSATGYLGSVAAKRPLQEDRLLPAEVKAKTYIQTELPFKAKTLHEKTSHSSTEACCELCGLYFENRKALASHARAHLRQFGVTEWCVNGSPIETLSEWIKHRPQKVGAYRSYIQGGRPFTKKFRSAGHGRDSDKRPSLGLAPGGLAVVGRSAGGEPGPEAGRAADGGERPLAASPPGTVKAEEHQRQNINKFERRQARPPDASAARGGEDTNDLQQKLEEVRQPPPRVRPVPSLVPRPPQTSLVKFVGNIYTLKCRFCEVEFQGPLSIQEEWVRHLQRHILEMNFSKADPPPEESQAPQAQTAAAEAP
T1 sequence (Q96SW2 whole entry, the tested form may be a part): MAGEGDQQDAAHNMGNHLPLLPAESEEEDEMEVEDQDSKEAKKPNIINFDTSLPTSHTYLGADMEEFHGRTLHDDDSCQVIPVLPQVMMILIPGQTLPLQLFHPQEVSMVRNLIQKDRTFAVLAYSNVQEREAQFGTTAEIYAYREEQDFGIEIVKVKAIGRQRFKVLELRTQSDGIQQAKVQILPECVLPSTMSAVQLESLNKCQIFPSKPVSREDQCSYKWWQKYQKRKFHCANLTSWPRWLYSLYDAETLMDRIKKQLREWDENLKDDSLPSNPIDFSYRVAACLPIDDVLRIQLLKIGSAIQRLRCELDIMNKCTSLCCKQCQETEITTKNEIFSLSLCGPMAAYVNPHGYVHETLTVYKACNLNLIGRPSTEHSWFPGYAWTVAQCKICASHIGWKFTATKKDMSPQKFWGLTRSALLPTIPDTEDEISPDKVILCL
T1 sequence (Q16531 whole entry partner, the tested form may be a part): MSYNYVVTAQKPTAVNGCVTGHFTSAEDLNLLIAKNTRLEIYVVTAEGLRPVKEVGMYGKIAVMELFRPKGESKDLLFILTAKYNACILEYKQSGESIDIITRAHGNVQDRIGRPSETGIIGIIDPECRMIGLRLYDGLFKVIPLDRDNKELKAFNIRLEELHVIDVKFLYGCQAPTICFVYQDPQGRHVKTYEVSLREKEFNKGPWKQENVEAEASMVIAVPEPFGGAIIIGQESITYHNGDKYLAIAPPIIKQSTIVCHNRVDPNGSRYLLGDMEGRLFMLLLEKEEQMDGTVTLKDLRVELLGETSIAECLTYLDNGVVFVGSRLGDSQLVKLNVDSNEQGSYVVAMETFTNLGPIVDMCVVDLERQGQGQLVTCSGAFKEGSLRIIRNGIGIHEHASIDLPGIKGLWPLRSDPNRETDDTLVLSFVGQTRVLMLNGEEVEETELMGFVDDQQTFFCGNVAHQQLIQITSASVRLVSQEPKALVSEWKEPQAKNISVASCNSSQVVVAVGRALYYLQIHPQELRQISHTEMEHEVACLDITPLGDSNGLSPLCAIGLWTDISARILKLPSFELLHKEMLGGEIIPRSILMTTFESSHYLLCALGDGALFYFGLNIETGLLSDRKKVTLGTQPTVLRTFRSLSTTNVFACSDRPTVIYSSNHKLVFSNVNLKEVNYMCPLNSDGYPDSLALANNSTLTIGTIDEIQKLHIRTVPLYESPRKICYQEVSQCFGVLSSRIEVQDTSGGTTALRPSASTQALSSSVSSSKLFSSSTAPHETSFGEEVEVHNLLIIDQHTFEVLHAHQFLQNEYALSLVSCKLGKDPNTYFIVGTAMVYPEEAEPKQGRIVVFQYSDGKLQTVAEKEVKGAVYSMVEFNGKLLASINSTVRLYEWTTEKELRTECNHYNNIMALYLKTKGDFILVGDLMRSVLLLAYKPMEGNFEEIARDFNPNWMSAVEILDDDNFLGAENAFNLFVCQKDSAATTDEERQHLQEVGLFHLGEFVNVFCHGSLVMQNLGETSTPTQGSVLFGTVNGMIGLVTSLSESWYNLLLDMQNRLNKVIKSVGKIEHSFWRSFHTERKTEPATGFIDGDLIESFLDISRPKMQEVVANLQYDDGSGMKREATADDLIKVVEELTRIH

`C[C@H]1C[C@H](Cc2ccn3ncc(-n4ccc(=O)[nH]c4=O)c3c2)CCN1CC1CCC(F)(F)CC1` [Example 268, 1-(5-(((2S,4R)-1-((4,4-difluorocyclohexyl)methyl)-2-methylpiperidin-4-yl)methyl)pyrazolo[1,5-a]pyridin-3-yl)pyrimidine-2,4(1H,3H)-dione]: the Dmax at 25 µM under setting [1] was found to be 89%. In addition, the remaining activity at 25 µM under setting [2] was found to be 11%. Also, the DC50 under setting [3] amounted to 24 nM.

On to `O=C1CCN(c2cnn3ccc(CC4CCN(C[C@H]5C[C@@H](F)[C@@H](F)C5)CC4)cc23)C(=O)N1` [Example 301, 1-(5-((1-(((1r,3R,4S)-3,4-difluorocyclopentyl)methyl)piperidin-4-yl)methyl)pyrazolo[1,5-a]pyridin-3-yl)dihydropyrimidine-2,4(1H,3H)-dione], for which the Dmax at 25 µM under setting [1] stood at 86%. Further, the remaining activity at 25 µM under setting [2] was 14%. The DC50 under setting [3] came to 2 nM.

For `CC(C)(C1CCC(F)(F)CC1)N1CCN(Cc2ccn3ncc(N4CCC(=O)NC4=O)c3c2)CC1` [Example 181, 1-(5-((4-(2-(4,4-difluorocyclohexyl)propan-2-yl)piperazin-1-yl)methyl)pyrazolo[1,5-a]pyridin-3-yl)dihydropyrimidine-2,4(1H,3H)-dione], the Dmax under setting [4] was determined as 75%. Also, the remaining activity (HEK-293T, read-out: WIZ Amax) was 25%. Further, the DC50 (read-out: WIZ AC50; WIZ HiBit assay in 293T cells; 10-point, 5-fold dose response, highest concentration 25 μM, about 18 hours) stood at 30 nM.

In the case of `O=C1CCN(c2cnn3ccc(CN4CCN(CC5CC(F)(F)C5)CC4)cc23)C(=O)N1` [Example 174], the Dmax at 25 µM under setting [1] was determined as 81%. Further, the remaining activity at 25 µM under setting [2] worked out at 19%. Also, the DC50 under setting [3] worked out at 95 nM.

As for `CC(C)CN1CC(Cc2ccn3ncc(N4CCC(=O)NC4=O)c3c2)C1` [Example 134, 1-(5-((1-isobutylazetidin-3-yl)methyl)pyrazolo[1,5-a]pyridin-3-yl)dihydropyrimidine-2,4(1H,3H)-dione], the Dmax at 25 µM under setting [1] stood at 27%. Also, the remaining activity at 25 µM under setting [2] amounted to 73%. The DC50 under setting [3] is 4300 nM.

With `O=C1CCN(c2cnn3ccc(CC4CCN(CC(CO)CO)CC4)cc23)C(=O)N1` [Example 121, 1-(5-((1-(3-hydroxy-2-(hydroxymethyl)propyl)piperidin-4-yl)methyl)pyrazolo[1,5-a]pyridin-3-yl)dihydropyrimidine-2,4(1H,3H)-dione], under setting [1], the Dmax at 25 µM came to 50%. The remaining activity at 25 µM under setting [2] was 50%. In addition, the DC50 under setting [3] was > 25000 nM.

Turning to `CC(c1cccnc1)N1CCN(Cc2ccn3ncc(N4CCC(=O)NC4=O)c3c2)CC1` (stereo not drawn) [Example 175], under setting [1], the Dmax at 25 µM amounted to 40%. Moreover, the remaining activity at 25 µM under setting [2] is 60%. The DC50 under setting [3] was 1240 nM.

For the compound `O=C1CCN(c2cnn3ccc(CN4C[C@H]5CC[C@@H](C4)N5Cc4cccnc4)cc23)C(=O)N1` [Example 253, 1-(5-(((1R,5S)-8-(pyridin-3-ylmethyl)-3,8-diazabicyclo[3.2.1]octan-3-yl)methyl)pyrazolo[1,5-a]pyridin-3-yl)dihydropyrimidine-2,4(1H,3H)-dione], the Dmax at 25 µM under setting [1] amounted to 23%. The remaining activity at 25 µM under setting [2] was 77%. In addition, the DC50 under setting [3] came to 531 nM.

With `O=C1CCN(c2cnn3ccc(CC4CCN(CC5CC(F)(F)C5)CC4)cc23)C(=O)N1` [Example 32, 1-(5-((1-((3,3-difluorocyclobutyl)methyl)piperidin-4-yl)methyl)pyrazolo[1,5-a]pyridin-3-yl)dihydropyrimidine-2,4(1H,3H)-dione], under setting [1], the Dmax at 25 µM is 82%. Besides, the remaining activity at 25 µM under setting [2] is 18%. Further, the DC50 under setting [3] worked out at 23 nM.

Turning to `CO[C@H]1CC[C@@H](CN2CCN(Cc3ccn4ncc(N5CCC(=O)NC5=O)c4c3)C[C@@H]2C)CC1` [Example 211, 1-(5-(((S)-4-(((1s,4R)-4-methoxycyclohexyl)methyl)-3-methylpiperazin-1-yl)methyl)pyrazolo[1,5-a]pyridin-3-yl)dihydropyrimidine-2,4(1H,3H)-dione], the Dmax at 25 µM under setting [1] amounted to 86%. Moreover, the remaining activity at 25 µM under setting [2] turned out to be 14%. Also, under setting [3], the DC50 was 33 nM.

With `CO[C@H]1C[C@H](CN2CC[C@@H](Cc3ccn4ncc(N5CCC(=O)NC5=O)c4c3)C[C@@H]2C)C1` [Example 302, 1-(5-(((2S,4R)-1-(((1r,3S)-3-methoxycyclobutyl)methyl)-2-methylpiperidin-4-yl)methyl)pyrazolo[1,5-a]pyridin-3-yl)dihydropyrimidine-2,4(1H,3H)-dione], the Dmax at 25 µM under setting [1] stood at 84%. For the same compound, the remaining activity at 25 µM under setting [2] worked out at 16%. The DC50 under setting [3] was found to be 42 nM.

On to `CC(C)CCN1CCN(Cc2ccn3ncc(N4CCC(=O)NC4=O)c3c2)C[C@@H]1C` [Example 204], for which, under setting [1], the Dmax at 25 µM was determined as 84%. The remaining activity at 25 µM under setting [2] stood at 16%. Further, under setting [3], the DC50 was 51 nM.

In the case of `O=C1CCN(c2cnn3ccc(CC4CCN(Cc5nccs5)CC4)cc23)C(=O)N1` [Example 60, 1-(5-((1-(thiazol-2-ylmethyl)piperidin-4-yl)methyl)pyrazolo[1,5-a]pyridin-3-yl)dihydropyrimidine-2,4(1H,3H)-dione], under setting [1], the Dmax at 25 µM is 61%. The remaining activity at 25 µM under setting [2] is 39%. The DC50 under setting [3] was determined as 34 nM.

Regarding `O=C1CCN(c2cnn3ccc(CC4CCN(C(=O)CCc5ccccc5)CC4)cc23)C(=O)N1` [Example 102], the Dmax at 25 µM under setting [1] was found to be 40%. Also, under setting [2], the remaining activity at 25 µM is 60%. In addition, the DC50 under setting [3] is 165 nM.

On to `C[C@H]1CN(Cc2ccn3ncc(N4CCC(=O)NC4=O)c3c2)CCN1CC1CC2(C1)CC(F)(F)C2` [Example 326, (S)-1-(5-((4-((6,6-difluorospiro[3.3]heptan-2-yl)methyl)-3-methylpiperazin-1-yl)methyl)pyrazolo[1,5-a]pyridin-3-yl)dihydropyrimidine-2,4(1H,3H)-dione], for which the Dmax at 25 µM under setting [1] came to 87%. In addition, the remaining activity at 25 µM under setting [2] was 13%. Also, the DC50 under setting [3] was found to be 49 nM.

Turning to `COc1ccc(CN2CCC(Cc3ccn4ncc(N5CCC(=O)NC5=O)c4c3)CC2)cc1` [Example 61, 1-(5-((1-(4-methoxybenzyl)piperidin-4-yl)methyl)pyrazolo[1,5-a]pyridin-3-yl)dihydropyrimidine-2,4(1H,3H)-dione], the Dmax at 25 µM under setting [1] amounted to 62%. For the same compound, under setting [2], the remaining activity at 25 µM stood at 38%. Also, the DC50 under setting [3] worked out at 1740 nM.

Consider `O=C1CCN(c2cnn3ccc(CN4CCN(CC5CCCCC5)[C@@H](C(F)F)C4)cc23)C(=O)N1` [Example 246, (R)-1-(5-((4-(cyclohexylmethyl)-3-(difluoromethyl)piperazin-1-yl)methyl)pyrazolo[1,5-a]pyridin-3-yl)dihydropyrimidine-2,4(1H,3H)-dione], for which, under setting [1], the Dmax at 25 µM came to 0%. Under setting [2], the remaining activity at 25 µM worked out at 100%. The DC50 under setting [3] is > 25000 nM.

As for `C[C@H]1CN(Cc2ccn3ncc(N4CCC(=O)NC4=O)c3c2)CCN1C1CCC1` [Example 329, (S)-1-(5-((4-cyclobutyl-3-methylpiperazin-1-yl)methyl)pyrazolo[1,5-a]pyridin-3-yl)dihydropyrimidine-2,4(1H,3H)-dione], the Dmax under setting [4] is 83%. Also, the remaining activity (HEK-293T, read-out: WIZ Amax) stood at 17%. In addition, the DC50 under setting [3] is 166 nM.

On to `O=C1CCN(c2cnn3ccc(CC4CCN(S(=O)(=O)Cc5ccccc5)CC4)cc23)C(=O)N1` [Example 88], for which the Dmax at 25 µM under setting [1] is 78%. The remaining activity at 25 µM under setting [2] was 22%. Besides, under setting [3], the DC50 came out at 181 nM.
